Key:
[1] = tested on: PpyLit, chimeric luciferase of PpyWT residues 1-439 and LitWT residues 440-550, SEQ ID NO: 8; assay: Relative rate of adenylate formation (L-AMP formation from dehydroluciferin), fluorescence-based; format: biochemical, Photinus pyralis / Luciola italica; conditions: faster than PpyWT, pH 7.4
Description: Using an excitation wavelength of 350 nm, the luciferase-catalyzed formation of L-AMP from dehydroluciferin (L), initiated by the addition of Mg-ATP, was assessed by following the decrease in the intensity of the 440 nm fluorescence of the initial enzyme-L complex. The change in fluorescence was used to estimate the rates of L-AMP formation catalyzed by the luciferases. Assays (0.4 mL) in 50 mM Tris buffer, pH 7.4 contained 2.8 μM enzyme and 0.55 μM L. The initial fluorescence at 440 nm was recorded and then the decrease was monitored following the rapid injection of 50 μL solutions of varying concentrations of Mg-ATP in the same buffer. The rates of decrease (slopes) were calculated and used to determine the initial velocities for each Mg-ATP concentration. The data were fitted using a nonlinear least squares method of the Enzyme Kinetics Pro software (SynTex), which fits data from the Michalis-Menten equation to a rectangular hyperbola, and the Vmax values were obtained. The corresponding kcat values were obtained by dividing the Vmax values (μmol/s) by the final amounts (μmol) of each luciferase in the assay mixtures.

[2] = biological target: Photinus pyralis luciferase, recombinant wild type (PpyWT), SEQ ID NO: 4, with N-terminal peptide GPLGS (Photinus pyralis, UniProt P08659); assay: Steady-state kinetic constants, bioluminescence activity; format: biochemical; conditions: pH 7.8; Vmax from LH2 Km measurement
Photinus pyralis luciferase, recombinant wild type (PpyWT), SEQ ID NO: 4, with N-terminal peptide GPLGS, sequence (P08659 whole entry, the tested form may be a part): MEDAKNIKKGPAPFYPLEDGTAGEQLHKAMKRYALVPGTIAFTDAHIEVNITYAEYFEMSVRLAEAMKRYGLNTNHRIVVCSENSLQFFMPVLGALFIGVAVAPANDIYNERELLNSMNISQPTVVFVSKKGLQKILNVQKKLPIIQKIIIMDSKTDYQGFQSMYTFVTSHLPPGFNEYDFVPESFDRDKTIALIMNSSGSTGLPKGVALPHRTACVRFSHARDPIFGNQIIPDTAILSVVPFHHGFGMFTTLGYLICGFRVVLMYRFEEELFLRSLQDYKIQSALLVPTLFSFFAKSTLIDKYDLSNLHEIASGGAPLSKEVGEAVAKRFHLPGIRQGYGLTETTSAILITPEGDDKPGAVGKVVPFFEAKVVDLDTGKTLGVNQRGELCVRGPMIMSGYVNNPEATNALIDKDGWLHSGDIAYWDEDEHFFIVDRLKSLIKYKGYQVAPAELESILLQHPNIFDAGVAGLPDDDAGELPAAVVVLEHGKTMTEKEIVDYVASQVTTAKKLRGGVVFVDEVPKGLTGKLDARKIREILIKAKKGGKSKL

[3] = tested on: LitPpy, chimeric luciferase of LitWT residues 1-439 and PpyWT residues 440-550; assay: as above; format: biochemical, Luciola italica / Photinus pyralis; conditions: pH 7.8
Description: (§1) Reactions were initiated by injection of solutions of the substrate being maintained at saturating concentration. Kinetic constants were determined using a nonlinear least squares method of the Enzyme Kinetics Pro software (SynTex), which fits data from the Michalis-Menten equation to a rectangular hyperbola. The corresponding kcat values were obtained by dividing the Vmax values by the amount (μmol) of each luciferase in the assay mixtures.

[4] = tested on: Ppy GR-TSLit, chimeric luciferase of Ppy GR-TS N-domain and LitWT C-domain; assay: as above; format: biochemical, Photinus pyralis / Luciola italica; conditions: pH 7.8
Description: as §1

[5] = tested on: Ppy RE-TSLit, chimeric luciferase of Ppy RE-TS N-domain and LitWT C-domain; assay: as above; format: biochemical, Photinus pyralis / Luciola italica; conditions: pH 7.8
Description: as §1

[6] = tested on: PpyLit (chimeric luciferase, SEQ ID NO: 8) variant F465R; assay: as above; format: biochemical, Photinus pyralis / Luciola italica; conditions: pH 7.8
Description: as §1

[7] = tested on: PpyLit (chimeric luciferase, SEQ ID NO: 8) variant I232A/E354K; assay: as above; format: biochemical, Photinus pyralis / Luciola italica; conditions: pH 7.8
Description: as §1

[8] = tested on: PpyLit (chimeric luciferase, SEQ ID NO: 8) variant I232A/I351V/E354K; assay: as above; format: biochemical, Photinus pyralis / Luciola italica; conditions: pH 7.8
Description: as §1

[9] = tested on: PpyLit (chimeric luciferase, SEQ ID NO: 8) variant I351V/E354K/F465R; assay: as above; format: biochemical, Photinus pyralis / Luciola italica; conditions: pH 7.8
Description: as §1

[10] = tested on: PpyLit (chimeric luciferase, SEQ ID NO: 8) variant I351V/E354K; assay: as above; format: biochemical, Photinus pyralis / Luciola italica; conditions: pH 7.8
Description: as §1

[11] = tested on: PpyLit (chimeric luciferase, SEQ ID NO: 8) variant S284T/F465R; assay: as above; format: biochemical, Photinus pyralis / Luciola italica; conditions: pH 7.8
Description: as §1

[12] = tested on: PpyLit (chimeric luciferase, SEQ ID NO: 8) variant S284T/I351V/E354K; assay: as above; format: biochemical, Photinus pyralis / Luciola italica; conditions: pH 7.8
Description: as §1

[13] = tested on: PpyLit (chimeric luciferase, SEQ ID NO: 8) variant S284T; assay: as above; format: biochemical, Photinus pyralis / Luciola italica; conditions: pH 7.8
Description: as §1

[14] = tested on: PpyLit, chimeric luciferase of PpyWT residues 1-439 and LitWT residues 440-550, SEQ ID NO: 8; assay: as above; format: biochemical, Photinus pyralis / Luciola italica; conditions: pH 7.8
Description: as §1

[15] = tested on: PpyLit, chimeric luciferase of PpyWT residues 1-439 and LitWT residues 440-550, SEQ ID NO: 8; assay: Rate of oxidative half-reaction with synthetic LH2-AMP; format: biochemical, Photinus pyralis / Luciola italica; conditions: faster than PpyWT; LH2-AMP as substrate, pH 7.8
Description: The estimated rates of the oxidative half-reactions were based on bioluminescence activity assays using synthetic LH2-AMP as the substrate. Assays (0.510 mL) in 50 mM glycylglycine buffer, pH 7.8, contained 0.1 mL aliquots of LH2-AMP solution (final concentration 1.5-35 μM) in 10 mM sodium acetate, pH 4.5. Immediately, light reactions were initiated by injections of 10 μL of luciferase enzymes (0.4-1 μg in CBA). Kinetic constants were determined using a nonlinear least squares method of the Enzyme Kinetics Pro software (SynTex), which fits data from the Michalis-Menten equation to a rectangular hyperbola. The corresponding kcat values were obtained by dividing the Vmax values by the final amounts (μmol) of each luciferase in the assay mixtures.

[16] = substrate: Nc1ncnc2c1ncn2[C@@H]1O[C@H](COP(=O)(O)OP(=O)(O)OP(=O)(O)O)[C@@H](O)[C@H]1O; assay: purified protein, by the assay type; conditions: other: pH 7.8, LH2 saturating, 37.0 °C
[17] = substrate: O=C(O)[C@H]1CSC(c2nc3ccc(O)cc3s2)=N1; assay: purified protein, by the assay type; conditions: other: pH 7.8, Mg-ATP saturating, 37.0 °C
[18] = read-out: Km LH2, Mg-ATP saturating

Q: For O=C(O)c1csc(-c2nc3ccc(O)cc3s2)n1 [L, dehydroluciferin], which “rate of adenylate formation half reaction” value [1] is on record?
A: The value was roughly 1.35 fold.

Q: What does the source list for O=C(O)[C@H]1CSC(c2nc3ccc(O)cc3s2)=N1 [LH2, D-firefly luciferin]?
A: kcat [2]: 0.18 ± 0.01 s⁻¹; kcat ([3]; Vmax from LH2 Km measurement): 0.033 ± 0.001 s⁻¹; Km [3, 18]: 54 ± 5 µM; kcat ([4]; Vmax from LH2 Km measurement): 0.079 ± 0.001 s⁻¹; Km [4, 18]: 123 ± 9 µM; kcat ([5]; Vmax from LH2 Km measurement): 0.09 ± 0.003 s⁻¹; Km [5, 18]: 51 ± 3 µM; kcat ([6]; Vmax from LH2 Km measurement): 0.34 ± 0.02 s⁻¹; Km [6, 18]: 31 ± 3 µM; kcat ([7]; Vmax from LH2 Km measurement): 0.25 ± 0.01 s⁻¹; Km [7, 18]: 24 ± 3 µM; kcat ([8]; Vmax from LH2 Km measurement): 0.24 ± 0.01 s⁻¹; Km [8, 18]: 51 ± 5 µM; kcat ([9]; Vmax from LH2 Km measurement): 0.29 ± 0.01 s⁻¹; Km [9, 18]: 83 ± 3 µM; kcat ([10]; Vmax from LH2 Km measurement): 0.30 ± 0.02 s⁻¹; Km [10, 18]: 52 ± 5 µM; kcat ([11]; Vmax from LH2 Km measurement): 0.10 ± 0.01 s⁻¹; Km [11, 18]: 22 ± 3 µM; kcat ([12]; Vmax from LH2 Km measurement): 0.13 ± 0.01 s⁻¹; Km [12, 18]: 49 ± 5 µM; kcat ([13]; Vmax from LH2 Km measurement): 0.10 ± 0.01 s⁻¹; Km [13, 18]: 15 ± 2 µM; kcat ([14]; Vmax from LH2 Km measurement): 0.32 ± 0.02 s⁻¹; Km [14, 18]: 25 ± 2 µM

Q: Nc1ncnc2c1ncn2[C@@H]1O[C@H](COP(=O)(O)OC(=O)[C@H]2CSC(c3nc4ccc(O)cc4s3)=N2)[C@@H](O)[C@H]1O [LH2-AMP] was tested. Which “rate of oxidative half reaction” value [15] did it give?
A: The value was roughly 1.35 fold.

B1: LitWT, recombinant Luciola italica luciferase containing Lys547Gly/Met548Gly, SEQ ID NO: 6, with N-terminal peptide GPLGS (Luciola italica; K547G/M548G) (protein)
chain: METEREENVVYGPLPFYPIEEGSAGIQLHKYMQQYAKLGAIAFSNALTGVDISYQQYFDITCRLAEAMKNYGMKPEGHIALCSENCEEFFIPVLAGLYIGVTVAPTNEIYTLRELNHSLGIAQPTIVFSSRKGLPKVLEVQKTVTCIKTIVILDSKVNFGGYDCVETFIKKHVELGFPATSFVPIDVKDRKHHIALLMNSSGSTGLPKGVEITHEGTVTRFSHAKDPIYGNQVSPGTAILTVVPFHHGFGMFTTLGYFACGYRIVMLTKFDEELFLRTLQDYKCTSVILVPTLFAILNRSELLDKFDLSNLTEIASGGAPLAKEIGEAVARRFNLPGVRQGYGLTETTSAFIITPEGDDKPGASGKVVPLFKVKIIDLDTKKTLGVNRRGEICVKGPSLMLGYTNNPEATRETIDEEGWLHTGDIGYYDEDEHFFIVDRLKSLIKYKGYQVPPAELESVLLQHPNIFDAGVAGVPDSEAGELPGAVVVMEKGKTMTEKEIVDYVNSQVVNHKRLRGGVRFVDEVPKGLTGKIDAKVIREILKKPQAGG
Q: How did the Km [16] turn out when B1 was run?
A: Its Km is 180 ± 14 µM.

Q: And the Km [17]?
A: Its Km is 90 ± 9 µM.

Q: What about the kcat [17] of the same molecule?
A: Its kcat is 0.14 ± 0.01 s⁻¹.
